From US20230190887A1, “TARGETING G3BP AGGREGATION TO PREVENT NEURODEGENERATION” (priority 2019, published 2023) come the findings set out here.

In this test the test system is E12.5 motor neurons. In words: MPP+-induced degeneration of motor neuron neurites (in vitro ALS model). The class given is cell-based, mouse. The note with it: DIV7 E12.5 motor neurons, 100 μM MPP+ 16-18 hours, with 10 μM peptide. As for the experimental part: Non-treated cultures were used as controls (FIG. 3A).
(A) Quantification of mitotoxin/neurotoxin MPP+-induced degeneration of DIV7 E12.5 motor neuron neurites after exposure of cultures to 100 μM MPP+ and either 10 μM 190-208 G3BP1 or 168-189 control peptide. As controls, neurons treated with solvents were used. (B) Representative images of G3BP1 (green) and NF-labeled (red) E12.5 motor neurons under control or after treatment with 100 μM MPP+ [scale bar=10 μm]. (C) distribution of sizes of endogenous G3BP1 aggregate per 100 μm neurite is shown as indicated bins from motor neurons cultures as treated in (B). (N≥80 neurites over three repetitions; by one-way ANOVA with Tukey HSD post-hoc). […] (D) Endogenous G3BP1 aggregate sizes per 100 μm neurite indicated as bins for motor neurons either untreated or treated with MPP+ alone or with addition of 10 μM 190-208 G3BP1 or 168-189 control peptide. […] (N≥90 over 3 cultures; by one-way ANOVA with Tukey HSD post-hoc)

Take “YGNKKNNNQNNN-VVEPEPEPEPEPEPEPVSE [G3BP1 190-208 peptide]”: the “MPP+-induced degeneration of motor neuron neurites” value is recorded as “prevents mitotoxin-induced degeneration”. Where the note is “listed as G3BP1 190-208”, the “MPP+-induced degeneration of motor neuron neurites” value was “protected against MPP+-induced degeneration”.
